Data as given in patent publication US20250230193A1, “CYCLIC COMPOUND HAVING SELECTIVE KRAS INHIBITORY EFFECT ON HRAS AND NRAS” (CHUGAI SEIYAKU KABUSHIKI KAISHA, priority 2022, published 2025).

Key:
[1] = biological target: GDP-bound NRAS wild-type protein (Homo sapiens, UniProt P01111); assay: Binding to NRAS by surface plasmon resonance (SPR), Single Cycle Kinetics; settings: KD ratio, GDP-bound NRAS wild-type vs GDP-bound KRAS wild-type, SPR
[2] = biological target: GDP-bound HRAS wild-type protein (Homo sapiens, UniProt P01112); assay: Binding to HRAS by surface plasmon resonance (SPR), Single Cycle Kinetics; settings: KD ratio, GDP-bound HRAS wild-type vs GDP-bound KRAS wild-type, SPR
Chain of GDP-bound HRAS wild-type protein (P01112 whole entry): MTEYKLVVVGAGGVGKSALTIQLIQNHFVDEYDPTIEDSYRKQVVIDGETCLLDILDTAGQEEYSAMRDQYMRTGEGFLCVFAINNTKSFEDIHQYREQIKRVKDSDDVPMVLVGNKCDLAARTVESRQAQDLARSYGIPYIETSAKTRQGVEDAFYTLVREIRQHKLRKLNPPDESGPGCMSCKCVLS

Chain of GDP-bound NRAS wild-type protein (P01111 whole entry): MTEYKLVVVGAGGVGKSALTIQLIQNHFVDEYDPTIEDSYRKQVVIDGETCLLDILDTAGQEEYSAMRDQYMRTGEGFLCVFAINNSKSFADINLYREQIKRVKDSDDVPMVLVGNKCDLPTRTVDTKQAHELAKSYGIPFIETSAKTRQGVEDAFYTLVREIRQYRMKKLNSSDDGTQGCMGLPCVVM

## CC[C@H](C)[C@@H]1NC(=O)[C@H](CC2CCC2)N(C)C(=O)C[C@@H](C(=O)N(C)C)N(C)C(=O)[C@H](C2CCCC2)N(C)C(=O)C2(CC(C)(C)C2)NC(=O)[C@@H]2CC(F)(F)CN2C(=O)[C@H](CCc2cc(F)c(C(F)(F)F)c(F)c2)NC(=O)CN(C)C(=O)[C@H](Cc2ccc(C(F)(F)F)cc2)N2CC/C=C\C[C@@H](C2=O)N(C)C(=O)CN(C)C1=O [PP1716]
[1]
  NRAS/KRAS (ratio of KD value for NRAS to KD value for KRAS): AA (a compound having 20 or more is denoted as AA)
[2]
  HRAS/KRAS (ratio of KD value for HRAS to KD value for KRAS): A (a compound having 10 or more and less than 20 is denoted as A)

## CC[C@H](C)[C@@H]1NC(=O)[C@H](COC)N(C)C(=O)C[C@@H](C(=O)N(C)C)N(C)C(=O)[C@H](C2CCCC2)N(C)C(=O)C2(CC(C)(C)C2)NC(=O)[C@@H]2CC(F)(F)CN2C(=O)[C@H](CCc2cc(F)c(C(F)(F)F)c(F)c2)NC(=O)CN(C)C(=O)[C@H](Cc2ccc(C(F)(F)F)cc2)N2CC/C=C\C[C@@H](C2=O)N(C)C(=O)CN(C)C1=O [PP1717]
[1]
  NRAS/KRAS (ratio of KD value for NRAS to KD value for KRAS): A (a compound having 10 or more and less than 20 is denoted as A)
[2]
  HRAS/KRAS (ratio of KD value for HRAS to KD value for KRAS): A (a compound having 10 or more and less than 20 is denoted as A)

## CCCOC[C@H]1C(=O)N[C@@H]([C@@H](C)CC)C(=O)N(C)CC(=O)N(C)[C@H]2C/C=C\CCN(C2=O)[C@@H](Cc2ccc(C(F)(F)F)cc2)C(=O)N(C)CC(=O)N[C@@H](CCc2cc(F)c(C(F)(F)F)c(F)c2)C(=O)N2CC(F)(F)C[C@H]2C(=O)NC2(CC(C)(C)C2)C(=O)N(C)[C@@H](C2CCCC2)C(=O)N(C)[C@H](C(=O)N(C)C)CC(=O)N1C [PP1718]
[1]
  NRAS/KRAS (ratio of KD value for NRAS to KD value for KRAS): AA (a compound having 20 or more is denoted as AA)
[2]
  HRAS/KRAS (ratio of KD value for HRAS to KD value for KRAS): A (a compound having 10 or more and less than 20 is denoted as A)

## CCCN(C)C(=O)[C@@H]1CC(=O)N(C)[C@@H](CC(F)F)C(=O)N[C@@H]([C@@H](C)CC)C(=O)N(C)CC(=O)N(C)[C@H]2C/C=C\CCN(C2=O)[C@@H](Cc2ccc(C(F)(F)F)cc2)C(=O)N(C)CC(=O)N[C@@H](CCc2cc(F)c(C(F)(F)F)c(F)c2)C(=O)N2CCC[C@H]2C(=O)NC2(CC(C)(C)C2)C(=O)N(C)[C@@H](C2CCCC2)C(=O)N1C [PP1721]
[1]
  NRAS/KRAS (ratio of KD value for NRAS to KD value for KRAS): A (a compound having 10 or more and less than 20 is denoted as A)
[2]
  HRAS/KRAS (ratio of KD value for HRAS to KD value for KRAS): A (a compound having 10 or more and less than 20 is denoted as A)

## CC[C@H](C)[C@@H]1NC(=O)[C@H](CC(F)(F)F)N(C)C(=O)C[C@@H](C(=O)N(C)C)N(C)C(=O)[C@H](C2CCCC2)N(C)C(=O)C2(CC(C)(C)C2)NC(=O)[C@@H]2CCCN2C(=O)[C@H](CCc2cc(F)c(C(F)(F)F)c(F)c2)NC(=O)CN(C)C(=O)[C@H](Cc2ccc(C(F)(F)F)cc2)N2CC/C=C\C[C@@H](C2=O)N(C)C(=O)CN(C)C1=O [PP1722]
[1]
  NRAS/KRAS (ratio of KD value for NRAS to KD value for KRAS): AA (a compound having 20 or more is denoted as AA)
[2]
  HRAS/KRAS (ratio of KD value for HRAS to KD value for KRAS): A (a compound having 10 or more and less than 20 is denoted as A)

## CC[C@H](C)[C@@H]1NC(=O)[C@H](CC(C)C)N(C)C(=O)C[C@@H](C(=O)N(C)C)N(C)C(=O)[C@H](C2CCCC2)N(C)C(=O)C2(CC(C)(C)C2)NC(=O)[C@@H]2CCCN2C(=O)[C@H](CCc2cc(F)c(C(F)(F)F)c(F)c2)NC(=O)CN(C)C(=O)[C@H](Cc2ccc(C(F)(F)F)cc2)N2CC/C=C\C[C@@H](C2=O)N(C)C(=O)CN(C)C1=O [PP1727]
[1]
  NRAS/KRAS (ratio of KD value for NRAS to KD value for KRAS): A (a compound having 10 or more and less than 20 is denoted as A)
[2]
  HRAS/KRAS (ratio of KD value for HRAS to KD value for KRAS): A (a compound having 10 or more and less than 20 is denoted as A)

## CC[C@H](C)[C@@H]1NC(=O)[C@H](CC2CCC2)N(C)C(=O)C[C@@H](C(=O)N(C)C)N(C)C(=O)[C@H](C2CCCC2)N(C)C(=O)C2(CC(C)(C)C2)NC(=O)[C@@H]2CCCN2C(=O)[C@H](CCc2cc(F)c(C(F)(F)F)c(F)c2)NC(=O)CN(C)C(=O)[C@H](Cc2ccc(C(F)(F)F)cc2)N2CC/C=C\C[C@@H](C2=O)N(C)C(=O)CN(C)C1=O [PP1728]
[1]
  NRAS/KRAS (ratio of KD value for NRAS to KD value for KRAS): A (a compound having 10 or more and less than 20 is denoted as A)
[2]
  HRAS/KRAS (ratio of KD value for HRAS to KD value for KRAS): A (a compound having 10 or more and less than 20 is denoted as A)

## CCCN(C)C(=O)[C@@H]1CC(=O)N(C)[C@@H](COC)C(=O)N[C@@H]([C@@H](C)CC)C(=O)N(C)CC(=O)N(C)[C@H]2C/C=C\CCN(C2=O)[C@@H](Cc2ccc(C(F)(F)F)cc2)C(=O)N(C)CC(=O)N[C@@H](CCc2cc(F)c(C(F)(F)F)c(F)c2)C(=O)N2CCC[C@H]2C(=O)NC2(CC(C)(C)C2)C(=O)N(C)[C@@H](C2CCCC2)C(=O)N1C [PP1729]
[1]
  NRAS/KRAS (ratio of KD value for NRAS to KD value for KRAS): AA (a compound having 20 or more is denoted as AA)
[2]
  HRAS/KRAS (ratio of KD value for HRAS to KD value for KRAS): A (a compound having 10 or more and less than 20 is denoted as A)

## CCCN(C)C(=O)[C@@H]1CC(=O)N(C)[C@@H](C)C(=O)N[C@@H]([C@@H](C)CC)C(=O)N(C)CC(=O)N(C)[C@H]2C/C=C\CCN(C2=O)[C@@H](Cc2ccc(C(F)(F)F)cc2)C(=O)N(C)CC(=O)N[C@@H](CCc2cc(F)c(C(F)(F)F)c(F)c2)C(=O)N2C[C@H](OCC)C[C@H]2C(=O)NC2(CC(F)(F)C2)C(=O)N(C)[C@@H](C2CCCC2)C(=O)N1C [PP1731]
[1]
  NRAS/KRAS (ratio of KD value for NRAS to KD value for KRAS): A (a compound having 10 or more and less than 20 is denoted as A)
[2]
  HRAS/KRAS (ratio of KD value for HRAS to KD value for KRAS): A (a compound having 10 or more and less than 20 is denoted as A)

## CCCN(C)C(=O)[C@@H]1CC(=O)N(C)[C@@H](CC)C(=O)N[C@@H]([C@@H](C)CC)C(=O)N(C)CC(=O)N(C)[C@H]2C/C=C\CCN(C2=O)[C@@H](Cc2ccc(C(F)(F)F)cc2)C(=O)N(C)CC(=O)N[C@@H](CCc2cc(F)c(C(F)(F)F)c(F)c2)C(=O)N2C[C@H](OCC)C[C@H]2C(=O)NC2(CC(F)(F)C2)C(=O)N(C)[C@@H](C2CCCC2)C(=O)N1C [PP1732]
[1]
  NRAS/KRAS (ratio of KD value for NRAS to KD value for KRAS): AA (a compound having 20 or more is denoted as AA)
[2]
  HRAS/KRAS (ratio of KD value for HRAS to KD value for KRAS): A (a compound having 10 or more and less than 20 is denoted as A)

## CCCN(C)C(=O)[C@@H]1CC(=O)N(C)[C@@H](CC(F)F)C(=O)N[C@@H]([C@@H](C)CC)C(=O)N(C)CC(=O)N(C)[C@H]2C/C=C\CCN(C2=O)[C@@H](Cc2ccc(C(F)(F)F)cc2)C(=O)N(C)CC(=O)N[C@@H](CCc2cc(F)c(C(F)(F)F)c(F)c2)C(=O)N2C[C@H](OCC)C[C@H]2C(=O)NC2(CC(F)(F)C2)C(=O)N(C)[C@@H](C2CCCC2)C(=O)N1C [PP1733]
[1]
  NRAS/KRAS (ratio of KD value for NRAS to KD value for KRAS): A (a compound having 10 or more and less than 20 is denoted as A)
[2]
  HRAS/KRAS (ratio of KD value for HRAS to KD value for KRAS): A (a compound having 10 or more and less than 20 is denoted as A)

## CCCN(C)C(=O)[C@@H]1CC(=O)N(C)[C@@H](CC(F)(F)F)C(=O)N[C@@H]([C@@H](C)CC)C(=O)N(C)CC(=O)N(C)[C@H]2C/C=C\CCN(C2=O)[C@@H](Cc2ccc(C(F)(F)F)cc2)C(=O)N(C)CC(=O)N[C@@H](CCc2cc(F)c(C(F)(F)F)c(F)c2)C(=O)N2C[C@H](OCC)C[C@H]2C(=O)NC2(CC(F)(F)C2)C(=O)N(C)[C@@H](C2CCCC2)C(=O)N1C [PP1734]
[1]
  NRAS/KRAS (ratio of KD value for NRAS to KD value for KRAS): A (a compound having 10 or more and less than 20 is denoted as A)
[2]
  HRAS/KRAS (ratio of KD value for HRAS to KD value for KRAS): A (a compound having 10 or more and less than 20 is denoted as A)

## CCC[C@H]1C(=O)N[C@@H]([C@@H](C)CC)C(=O)N(C)CC(=O)N(C)[C@H]2C/C=C\CCN(C2=O)[C@@H](Cc2ccc(C(F)(F)F)cc2)C(=O)N(C)CC(=O)N[C@@H](CCc2cc(F)c(C(F)(F)F)c(F)c2)C(=O)N2C[C@H](OCC)C[C@H]2C(=O)NC2(CC(F)(F)C2)C(=O)N(C)[C@@H](C2CCCC2)C(=O)N(C)[C@H](C(=O)N(C)CC)CC(=O)N1C [PP1735]
[1]
  NRAS/KRAS (ratio of KD value for NRAS to KD value for KRAS): AA (a compound having 20 or more is denoted as AA)
[2]
  HRAS/KRAS (ratio of KD value for HRAS to KD value for KRAS): A (a compound having 10 or more and less than 20 is denoted as A)

## CCC[C@H]1C(=O)N[C@@H]([C@@H](C)CC)C(=O)N(C)CC(=O)N(C)[C@H]2C/C=C\CCN(C2=O)[C@@H](Cc2ccc(C(F)(F)F)cc2)C(=O)N(C)CC(=O)N[C@@H](CCc2cc(F)c(C(F)(F)F)c(F)c2)C(=O)N2C[C@H](OCC)C[C@H]2C(=O)NC2(CC(F)(F)C2)C(=O)N(C)[C@@H](C2CCCC2)C(=O)N(C)[C@H](C(=O)N(C)CCC)CC(=O)N1C [PP1736]
[1]
  NRAS/KRAS (ratio of KD value for NRAS to KD value for KRAS): A (a compound having 10 or more and less than 20 is denoted as A)
[2]
  HRAS/KRAS (ratio of KD value for HRAS to KD value for KRAS): A (a compound having 10 or more and less than 20 is denoted as A)

## C#CC[C@H]1C(=O)N[C@@H]([C@@H](C)CC)C(=O)N(C)CC(=O)N(C)[C@H]2C/C=C\CCN(C2=O)[C@@H](Cc2ccc(C(F)(F)F)cc2)C(=O)N(C)CC(=O)N[C@@H](CCc2cc(F)c(C(F)(F)F)c(F)c2)C(=O)N2C[C@H](OCC)C[C@H]2C(=O)NC2(CC(F)(F)C2)C(=O)N(C)[C@@H](C2CCCC2)C(=O)N(C)[C@H](C(=O)N(C)CCC)CC(=O)N1C [PP1737]
[1]
  NRAS/KRAS (ratio of KD value for NRAS to KD value for KRAS): A (a compound having 10 or more and less than 20 is denoted as A)
[2]
  HRAS/KRAS (ratio of KD value for HRAS to KD value for KRAS): A (a compound having 10 or more and less than 20 is denoted as A)

## CCO[C@@H]1C[C@H]2C(=O)NC3(CC(F)(F)C3)C(=O)N(C)[C@@H](C3CCCC3)C(=O)N(C)[C@H](C(=O)N(C)CC)CC(=O)N(C)[C@@H](CC3CC3)C(=O)N[C@@H]([C@@H](C)CC)C(=O)N(C)CC(=O)N(C)[C@H]3C/C=C\CCN(C3=O)[C@@H](Cc3ccc(C(F)(F)F)cc3)C(=O)N(C)CC(=O)N[C@@H](CCc3cc(F)c(C(F)(F)F)c(F)c3)C(=O)N2C1 [PP1738]
[1]
  NRAS/KRAS (ratio of KD value for NRAS to KD value for KRAS): AA (a compound having 20 or more is denoted as AA)
[2]
  HRAS/KRAS (ratio of KD value for HRAS to KD value for KRAS): A (a compound having 10 or more and less than 20 is denoted as A)
